Measured values: article PMC4967369 (Xenobiotica; the fate of foreign compounds in biological …, 2015)
Like-named read-outs stand apart in the source and are kept apart here.

Experiments:
[1] = dog, in vivo
[2] = in vivo
[3] = Isoflavone glucuronidation assay, dog liver microsomes; type: in vitro ADME; details: mixed-breed, dog, pH 7.5
dog liver microsomes = assay: as above; type: in vitro ADME; details: pooled dog liver microsomes (n=16)
[4] = Isoflavone glucuronidation assay, cat liver microsomes; type: in vitro ADME; details: domestic short-hair, cat, pH 7.5
cat liver microsomes [5] = assay: as above; type: in vitro ADME; details: for Vmax, 7-OH-glucuronidation: pooled cat liver microsomes (n=5); for Rank of cat liver glucuronidation rate among species: pooled liver microsomes, 35 µM substrate, 13 species compared
[6] = Isoflavone glucuronidation assay, human liver microsomes; type: in vitro ADME; details: human, pH 7.5
human liver microsomes = assay: as above; type: in vitro ADME; details: pooled human liver microsomes (n=48)
[7] = tested on: liver microsomes from 13 different species; assay: Isoflavone glucuronidation by liver microsomes from 13 different species; type: in vitro ADME, 13 species
[8] = for Urinary concentration, Unconjugated: without enzyme treatment, normalized to creatinine
[9] = for % Glucuronides: percentage of free and conjugated isoflavones that are glucuronide; for Urinary concentration, Unconjugated: without enzyme treatment, normalized to creatinine
cat liver microsomes [10] = assay: Estradiol glucuronidation assay, cat liver microsomes; type: in vitro ADME; details: cat livers, 100 µM substrate
[11] = tested on: mongoose liver microsomes; assay: Estradiol glucuronidation assay, mongoose liver microsomes; type: in vitro ADME; details: mongoose livers, 100 µM substrate
ferret liver microsomes = assay: Estradiol glucuronidation assay, ferret liver microsomes; type: in vitro ADME; details: ferret livers, 100 µM substrate
[12] = pooled liver microsomes, 35 µM substrate

## CC(C(=O)c1c(O)cc(O)cc1O)c1ccc(O)cc1 (stereo not drawn) [6-hydroxy-O-desmethylangolensin]
[1]
  Detection of metabolite in urine: not detected
[2]
  Detection of metabolite in urine: not detected

## O=c1c(-c2ccc(O)cc2)coc2cc(O)ccc12 [Daidzein, daidzein]
[3]; pooled dog liver microsomes
  Km: 55.4 ± 3.8 µM
Dog liver microsomes
  Vmax, 7-OH-glucuronidation: 8.10 ± 0.1 nmoles/min/mg protein
[4]; pooled cat liver microsomes
  Km: 41.9 ± 6.6 µM
Cat liver microsomes [5]
  Vmax, 7-OH-glucuronidation: 1.61 ± 0.06 nmoles/min/mg protein
  Rank of cat liver glucuronidation rate among species: within the lowest three out of 13 species
[6]; pooled human liver microsomes
  Km: 26.6 ± 5.1 µM
Human liver microsomes
  Vmax, 7-OH-glucuronidation: 1.30 ± 0.05 nmoles/min/mg protein
[7]; 35 µM, pH 7.5
  4'-OH-glucuronidation, detection: could not be measured in five of the 13 species

## O=C1c2c(O)cc(O)cc2OCC1c1ccc(O)cc1 (stereo not drawn) [Dihydrogenistein, dihydrogenistein]
[8]; pooled dog urine (n=10), after bovine liver β-glucuronidase treatment, mean
  Urinary concentration, Glucuronides: 631 pmoles / mg creatinine
[8]; pooled dog urine (n=10), percentage of free and conjugated isoflavones that are glucuronide
  % Glucuronides: 33%
[8]; pooled dog urine (n=10), sum of free and conjugated concentrations, mean
  Urinary concentration, Total: 1919 pmoles / mg creatinine
[8]; pooled dog urine (n=10), mean
  Urinary concentration, Unconjugated: 0 pmoles / mg creatinine
[9]; pooled cat urine (n=18), after bovine liver β-glucuronidase treatment, mean
  Urinary concentration, Glucuronides: 0 pmoles / mg creatinine
[9]; pooled cat urine (n=18)
  % Glucuronides: 0%
[9]; pooled cat urine (n=18), listed as dihydrogenistein
  % Glucuronides: undetectable
[9]; pooled cat urine (n=18), sum of free and conjugated concentrations, mean
  Urinary concentration, Total: 2998 pmoles / mg creatinine
[9]; pooled cat urine (n=18), mean
  Urinary concentration, Unconjugated: 0 pmoles / mg creatinine

## Oc1ccc([C@H]2COc3cc(O)ccc3C2)cc1 [Equol, equol]
[3]; pooled dog liver microsomes
  Km: 32.6 ± 6.9 µM
Dog liver microsomes
  Vmax, 7-OH-glucuronidation: 14.3 ± 0.6 nmoles/min/mg protein
[4]; pooled cat liver microsomes
  Km: 132 ± 26 µM
Cat liver microsomes [5]
  Vmax, 7-OH-glucuronidation: 20.4 ± 1.4 nmoles/min/mg protein
  Rank of cat liver glucuronidation rate among species: within the lowest three out of 13 species
[6]; pooled human liver microsomes
  Km: 31.8 ± 5.1 µM
Human liver microsomes
  Vmax, 7-OH-glucuronidation: 17.4 ± 0.7 nmoles/min/mg protein
[7]; [12]
  4'-OH-glucuronidation, detection: not detected in any of the species evaluated
  7-OH-glucuronidation, detection: detected in all species livers’ evaluated except for glucuronidation of equol by mongoose liver
[8]; individual dog urine samples with detectable equol (three of ten)
  Equol to daidzein ratio: 0.004–0.017
[8]; pooled dog urine (n=10), mean
  Urinary concentration, Unconjugated: 0 pmoles / mg creatinine

## O=c1c(-c2ccc(O)cc2)coc2cc(O)cc(O)c12 [Genistein, genistein]
[3]
  Km: 15.3 ± 2.4 µM
Dog liver microsomes
  Vmax, 7-OH-glucuronidation: 5.13 ± 0.2 nmoles/min/mg protein
[4]
  Km: 10.3 ± 2.5 µM
Cat liver microsomes [5]
  Vmax, 7-OH-glucuronidation: 2.15 ± 0.1 nmoles/min/mg protein
  Rank of cat liver glucuronidation rate among species: within the lowest three out of 13 species
[6]
  Km: 11.7 ± 2.4 µM
Human liver microsomes
  Vmax, 7-OH-glucuronidation: 1.60 ± 0.07 nmoles/min/mg protein
[7]; search for additional HPLC peaks with the same mass spectrum
  Glucuronidation at the 5-OH position: no evidence for glucuronidation at that site
[8]; pooled dog urine (n=10), mean
  Urinary concentration, Unconjugated: 31 pmoles / mg creatinine
[9]; pooled cat urine (n=18), mean
  Urinary concentration, Unconjugated: 29 pmoles / mg creatinine

## COc1cc2c(=O)c(-c3ccc(O)cc3)coc2cc1O [Glycitein, glycitein]
[8]; pooled dog urine (n=10), mean
  Urinary concentration, Unconjugated: 9 pmoles / mg creatinine

## CC(C(=O)c1ccc(O)cc1O)c1ccc(O)cc1 (stereo not drawn) [O-desmethylangolensin]
[1]
  Detection of metabolite in urine: not detected
[2]
  Detection of metabolite in urine: not detected

## Oc1ccc(C2=Cc3ccc(O)cc3OC2)cc1 [dehydroequol]
[8]; dog urine, before or after treatment with deconjugation enzymes
  Detection of metabolite in urine: not detected
[9]; cat urine, before or after treatment with deconjugation enzymes
  Detection of metabolite in urine: not detected

## C[C@]12CC[C@@H]3c4ccc(O)cc4CC[C@H]3[C@@H]1CC[C@@H]2O [estradiol, β-estradiol]
Cat liver microsomes [10]
  Rank of estradiol glucuronidation among 13 species: sixth lowest
[11]
  Rank of estradiol glucuronidation among 13 species: fifth
Ferret liver microsomes
  Rank of estradiol glucuronidation among 13 species: third lowest
